Key:
[1] = target: T1, cytoplasmic domain of the human CSF-1R (Homo sapiens, UniProt P07333); experiment: In vitro kinase assay for colony stimulating factor-1 receptor (AlphaScreen); assay type: biochemical; conditions: tested at about 1 μM; read-out: CSF-1R percent inhibition
T1 construct: Recombinant protein corresponding to the cytoplasmic domain of the human CSF-1R; purchased Invitrogen Corporation, Carlsbad, Calif; PV3249
T1 sequence (P07333 539-972 limits assumed): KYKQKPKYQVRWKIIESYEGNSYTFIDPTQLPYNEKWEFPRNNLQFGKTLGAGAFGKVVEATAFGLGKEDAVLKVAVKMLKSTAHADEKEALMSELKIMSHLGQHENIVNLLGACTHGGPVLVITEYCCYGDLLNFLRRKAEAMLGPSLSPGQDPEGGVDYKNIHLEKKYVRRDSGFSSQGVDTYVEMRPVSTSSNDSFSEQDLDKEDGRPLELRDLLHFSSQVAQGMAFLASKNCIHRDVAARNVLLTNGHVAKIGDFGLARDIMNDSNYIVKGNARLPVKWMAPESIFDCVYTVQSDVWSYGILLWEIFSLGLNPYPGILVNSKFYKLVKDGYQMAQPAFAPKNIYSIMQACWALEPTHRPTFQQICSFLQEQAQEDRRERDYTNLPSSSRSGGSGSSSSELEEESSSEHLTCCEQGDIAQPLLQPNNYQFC
Summary of the method: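 4 nM enzyme, 1 μM ATP; buffer 50 mM Hepes pH 7.5, 5 mM MgCl2, 10 mM MnCl2, 1.0 mM DTT, 0.1% BSA, 0.01% Tween 80. Readout: AlphaScreen, PT66 acceptor/streptavidin donor, overnight.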

[2] = target: T2, full-length human CSF-1R receptor (Homo sapiens, UniProt P07333); experiment: In vitro inhibition of CSF-1R receptor tyrosine phosphorylation in transfected HEK293H cells stimulated with MCSF; assay type: cell-based; conditions: HEK293-H, tested at about 1 μM; HEK293H cells; read-out: pCSF1R percent inhibition
T2 construct: transfected with the full-length human CSF-1R receptor cloned in house; expressed in transfected cells; host or cells: HEK293H (Invitrogen Cat. #11631017)
T2 sequence (P07333 20-972): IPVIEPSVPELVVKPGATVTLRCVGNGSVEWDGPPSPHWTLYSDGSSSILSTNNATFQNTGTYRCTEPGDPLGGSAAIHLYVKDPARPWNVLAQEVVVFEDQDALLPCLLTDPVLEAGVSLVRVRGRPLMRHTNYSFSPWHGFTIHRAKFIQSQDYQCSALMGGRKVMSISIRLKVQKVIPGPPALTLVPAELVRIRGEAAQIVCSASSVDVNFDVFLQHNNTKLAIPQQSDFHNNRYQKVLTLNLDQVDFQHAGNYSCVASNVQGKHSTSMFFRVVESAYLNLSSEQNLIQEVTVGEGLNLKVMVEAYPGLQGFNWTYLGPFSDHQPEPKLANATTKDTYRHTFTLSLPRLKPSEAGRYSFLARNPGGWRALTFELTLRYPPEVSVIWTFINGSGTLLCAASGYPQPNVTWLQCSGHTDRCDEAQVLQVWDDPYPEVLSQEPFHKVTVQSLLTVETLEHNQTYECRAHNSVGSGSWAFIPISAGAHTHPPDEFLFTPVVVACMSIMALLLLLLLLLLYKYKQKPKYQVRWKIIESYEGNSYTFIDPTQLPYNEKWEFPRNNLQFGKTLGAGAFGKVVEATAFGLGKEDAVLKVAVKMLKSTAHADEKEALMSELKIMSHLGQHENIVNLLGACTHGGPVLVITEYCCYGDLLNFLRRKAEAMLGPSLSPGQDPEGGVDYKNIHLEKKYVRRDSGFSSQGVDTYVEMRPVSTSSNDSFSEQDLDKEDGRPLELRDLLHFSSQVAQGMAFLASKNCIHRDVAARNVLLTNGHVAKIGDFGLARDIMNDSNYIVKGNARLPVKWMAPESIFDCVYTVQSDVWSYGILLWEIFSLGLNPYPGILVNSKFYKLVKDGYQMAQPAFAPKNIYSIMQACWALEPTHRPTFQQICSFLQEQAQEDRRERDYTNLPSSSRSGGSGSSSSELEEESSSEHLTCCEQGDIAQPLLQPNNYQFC
Protocol: The lysate was then transferred to total CSF-1R antibody coated 96-well plates that had already been blocked with 3% Blocker A from Mesoscale discovery (MSD) for 2 hours and washed afterwards. Lysates were incubated overnight at 4° C. and the plates were then washed 4× with MSD Tris Wash Buffer. […] The plates were read on the Sector 6000 instrument (MSD). Raw data was imported in Abase and EC50s calculated with XL-fit data analysis software.

kinase domain of cKIT = target: T3, kinase domain of cKIT (Homo sapiens, UniProt P10721); experiment: Inhibition of cKIT kinase signaling in an in vitro biochemical assay (alphascreen); conditions: tested at about 1 μM; read-out: cKit percent inhibition
T3 construct: The kinase domain of cKIT was assayed in 50 mM Hepes; purchased Upstate 14-559
T3 sequence (P10721 589-937 limits assumed): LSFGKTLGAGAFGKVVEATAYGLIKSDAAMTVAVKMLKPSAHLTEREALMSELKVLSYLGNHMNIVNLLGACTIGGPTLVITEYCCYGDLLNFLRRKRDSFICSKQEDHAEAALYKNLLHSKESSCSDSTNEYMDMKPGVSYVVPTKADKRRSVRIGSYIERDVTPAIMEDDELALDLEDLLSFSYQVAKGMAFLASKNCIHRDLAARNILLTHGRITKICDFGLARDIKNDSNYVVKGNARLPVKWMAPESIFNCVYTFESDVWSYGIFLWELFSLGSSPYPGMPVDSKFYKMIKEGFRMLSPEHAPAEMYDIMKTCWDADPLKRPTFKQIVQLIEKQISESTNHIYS

kinase domain of PDGFRβ = target: T4, kinase domain of PDGFRβ (Homo sapiens, UniProt P09619); experiment: Inhibition of PDGFRb kinase signaling in an in vitro biochemical assay (alphascreen); conditions: tested at about 1 μM; read-out: PDGFRβ percent inhibition
T4 construct: The kinase domain of PDGFRβ was assayed in 50 mM Hepes; purchased Invitrogen P3082
T4 sequence (P09619 600-962 limits assumed): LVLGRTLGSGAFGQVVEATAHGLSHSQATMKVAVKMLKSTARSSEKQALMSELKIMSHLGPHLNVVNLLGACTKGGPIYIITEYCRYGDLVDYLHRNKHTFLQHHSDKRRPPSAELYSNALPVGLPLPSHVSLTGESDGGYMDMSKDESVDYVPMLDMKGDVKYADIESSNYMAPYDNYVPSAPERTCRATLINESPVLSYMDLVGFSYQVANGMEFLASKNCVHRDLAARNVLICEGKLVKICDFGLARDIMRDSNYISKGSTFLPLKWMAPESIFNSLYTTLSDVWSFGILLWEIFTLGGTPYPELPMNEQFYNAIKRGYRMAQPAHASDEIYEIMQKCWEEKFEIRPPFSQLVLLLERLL

[3] = test system: MNFS60 (murine AML cells); experiment: Cell viability assay in MCSF dependent MNFS60 cells (Cell Titer Glo); assay type: cell-based; conditions: Mus musculus, tested at about 1 μM; MCSF dependent MNFS60 cells; read-out: M-NFS-60 CP percent inhibition
Summary of the method: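 MNFS60 cells grown with 10 ng/ml MCSF (final) were exposed for 72 hrs at 37° C., 5% CO2 to 3-fold serial compound dilutions. Viable cells were measured by Cell Titer Glo luminescence, in triplicate, and EC50s were derived by curve fitting.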

inhibition at 1 µM [1] [%]	inhibition at 1 µM [2] [%]	inhibition at 1 µM (kinase domain of cKIT) [%]	inhibition at 1 µM (kinase domain of PDGFRβ) [%]	SMILES	inhibition at 1 µM [3] [%]
101	91	51	0	Cn1cc(-c2cc(Oc3ccc4nc(N[C@H]5CCCN(S(=O)(=O)C6CC6)C5)sc4c3)ccn2)cn1 [Example 373, (S)-N-(1-(cyclopropylsulfonyl)piperidin-3-yl)-6-(2-(1-methyl-1H-pyrazol-4-yl)pyridin-4-yloxy)benzo[d]thiazol-2-amine]	100
100	77	72	28	CNC(=O)c1cc(Oc2ccc3nc(N[C@@H]4CCCC[C@H]4O)sc3c2Br)ccn1 [Example 376, 4-(7-bromo-2-((1R,2R)-2-hydroxycyclohexylamino)benzo[d]thiazol-6-yloxy)-N-methylpicolinamide]	87
100	87	62	43	CNC(=O)c1cc(Oc2ccc3nc(N[C@@H]4CCCC[C@H]4O)sc3c2Cl)ccn1 [Example 378, 4-(7-chloro-2-((1R,2R)-2-hydroxycyclohexylamino)benzo[d]thiazol-6-yloxy)-N-methylpicolinamide]	90

SMILES	inhibition at 1 µM [1] [%]	inhibition at 1 µM [2] [%]	inhibition at 1 µM (kinase domain of cKIT) [%]	inhibition at 1 µM (kinase domain of PDGFRβ) [%]	inhibition at 1 µM [3] [%]
CC(C)CONC(=O)c1cc(Oc2ccc3nc(NCC4CCCCC4)sc3c2)ccn1 [Example 380, 4-(2-(cyclohexylmethylamino)benzo[d]thiazol-6-yloxy)-N-isobutoxypicolinamide]	100	94	53	49	79
CC(C)CONC(=O)c1cc(Oc2ccc3nc(N[C@@H]4CCCC[C@H]4O)sc3c2)ccn1 [Example 381, 4-(2-((1R,2R)-2-hydroxycyclohexylamino)benzo[d]thiazol-6-yloxy)-N-isobutoxypicolinamide]	100	99	30	20	100

Reference: patent US8173689B2 (Novartis AG, priority 2006, dated 2012)
